Experimental data: US11976047B1, “4,5-bis(4-bromo-phenyl)-1-hexyl-2-(2- methoxyphenyl)-1H-imidazole as an antimicrobial compound” (KING FAISAL UNIVERSITY, priority 2023, dated 2024)

Key:
Type in all cases: cell-based
Details in all cases: after 10, 20, 40 and 60 minutes at all dilutions 1:100, 1:200, 1:400, 1:800 (summary in words)
Staphylococcus aureus = test: Antimicrobial screening by agar dilution, Staphylococcus aureus
Description: (§1) The antimicrobial properties of the 4,5-bis(4-bromo-phenyl)-1-hexyl-2-(2-methoxyphenyl)-1H-imidazole was studied by the method of agar dilution. Test solutions of each compound was prepared in concentration of 1% using dimethylformamide as a solvent then they are diluted in physiological solution to obtain the final experimental dilutions 1:100, 1:200, 1:400, 1:800. The effect of these substances are compared with furacillin in a controlled study. The testing microbes used were gram positive bacteria Staphylococcus aureus, gram negative bacteria Pseudomonas aeruginosa and Escherichia coli and Candida albicans fungi were taken. The experiments used for this survey were meat-pentonlu agar (EPA) for cultivation of bacteria and Saburo environment for fungi. Each experiment used 1 ml of test solution on each plate 500 min. Add 2 drops of emulsified with microbes feel. All experimental samples were taken from the agar after 10, 20, 40, 60 minutes in the environment on the basis of Patrk planted. Bacteria were cultivated at a temperature of 37° C. for 1 day and the mushroom was kept in a thermostat for 2 hours at a temperature of 28° C. in the. Then results were checked.

Escherichia coli = test: Antimicrobial screening by agar dilution, Escherichia coli
Description: as §1

Pseudomonas aeruginosa = test: Antimicrobial screening by agar dilution, Pseudomonas aeruginosa
Description: as §1

Candida albicans = test: Antimicrobial (antifungal) screening by agar dilution, Candida albicans
Description: as §1

CCCCCCn1c(-c2ccccc2OC)nc(-c2ccc(Br)cc2)c1-c1ccc(Br)cc1 [4,5-bis(4-bromo-phenyl)-1-hexyl-2-(2-methoxyphenyl)-1H-imidazole]
highest inhibition activity: inhibition activity, Staphylococcus aureus (Staphylococcus aureus) | inhibition activity, Escherichia coli (Escherichia coli) | inhibition activity, Pseudomonas aeruginosa (Pseudomonas aeruginosa) | inhibition activity, Candida albicans (Candida albicans)
